Measurements reported in PubChem BioAssay (NCI).
Several values for one entry are separate records, joined by “and”; a condition that tells them apart may be missing. Identical values can stand only once.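 Cultured in 96-well plates, cells were exposed to test compound for 48 hours across five concentrations. GI50: concentration for 50% inhibition of growth. TGI is the concentration that stops growth completely.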

How the values were obtained:
Test in all cases: growth of human tumour cells (NCI), 48 h
SF-295 CNS = tested on: SF-295 CNS
SK-MEL-28 melanoma = tested on: SK-MEL-28 melanoma
UO-31 renal = tested on: UO-31 renal
DU-145 prostate = tested on: DU-145 prostate
NCI-H460 lung = tested on: NCI-H460 lung
PC-3 prostate = tested on: PC-3 prostate
UACC-62 melanoma = tested on: UACC-62 melanoma
SW-620 colon = tested on: SW-620 colon
IGROV1 ovarian = tested on: IGROV1 ovarian
UACC-257 melanoma = tested on: UACC-257 melanoma

Compound	GI50 (SF-295 CNS)	TGI (SF-295 CNS)	GI50 (SK-MEL-28 melanoma)	TGI (SK-MEL-28 melanoma)	GI50 (UO-31 renal)	TGI (UO-31 renal)	GI50 (DU-145 prostate)	TGI (DU-145 prostate)	GI50 (NCI-H460 lung)	TGI (NCI-H460 lung)	GI50 (PC-3 prostate)	TGI (PC-3 prostate)	GI50 (UACC-62 melanoma)	TGI (UACC-62 melanoma)	GI50 (SW-620 colon)	TGI (SW-620 colon)	GI50 (IGROV1 ovarian)	TGI (IGROV1 ovarian)	GI50 (UACC-257 melanoma)	TGI (UACC-257 melanoma)
O=C1/C(=C\c2ccc([N+](=O)[O-])cc2)CS(=O)(=O)C/C1=C/c1ccc([N+](=O)[O-])cc1	0.563 µM	6.42 µM	0.188 µM	0.444 µM and 3.59 µM	0.605 µM	0.366 µM and 1.85 µM	0.87 µM	12.4 µM	0.256 µM	2.48 µM	0.194 µM	0.713 µM and 1.51 µM	1.84 µM	0.519 µM and 4.12 µM	0.0889 µM	0.481 µM and 2.74 µM	0.275 µM	0.841 µM and 2.22 µM	0.931 µM	5.33 µM
Cc1ccc(-n2nnc3c(sc4ccccc43)c2=O)cc1	3.03 µM	14.5 µM	> 100 µM	> 100 µM	2.24 µM	7.75 µM	7.41 µM	> 100 µM	4.19 µM	> 100 µM	7.73 µM	> 100 µM	51.7 µM	> 100 µM	26.2 µM	> 100 µM	4.16 µM	> 100 µM	> 100 µM	> 100 µM
COc1ccc(C2=NNC(c3cc(Cc4ccc(O)c(C5CC(c6ccc(OC)cc6)=NN5)c4)ccc3O)C2)cc1 (stereo not given)	21.2 µM	> 100 µM	10.2 µM	34.1 µM	4.29 µM	> 100 µM	29.8 µM	> 100 µM	4.88 µM	> 100 µM	61.4 µM	> 100 µM	10.6 µM	99.6 µM	7.96 µM	> 100 µM	13.7 µM	> 100 µM	25.6 µM	> 100 µM
COc1ccc(/C=C/c2ccnc3ccccc23)cc1	–	32.7 µM	–	29.4 µM	–	0.0937 µM	–	28 µM	–	47.7 µM	–	39.7 µM	–	29.2 µM	–	36.3 µM	–	32.5 µM	–	31.4 µM
O=[N+]([O-])c1ccc(Oc2cccc(C(F)(F)F)c2)c([N+](=O)[O-])c1	2.87 µM	11.3 µM	6.47 µM	19.9 µM	3.15 µM	13.8 µM	2.33 µM	5.38 µM	3.1 µM	10.2 µM	4.2 µM	16.4 µM	3.78 µM	15.2 µM	0.451 µM	10.1 µM	3.02 µM	14.2 µM	5.46 µM	18.7 µM
O=C1c2ccccc2-c2c1c1c(O)cccc1n2CCCc1ccccc1	7.33 µM	> 100 µM	> 100 µM	> 100 µM	7.66 µM	> 100 µM	28.1 µM	> 100 µM	29.7 µM	> 100 µM	16.2 µM	> 100 µM	22.7 µM	> 100 µM	51.9 µM	> 100 µM	17.1 µM	> 100 µM	19.7 µM	50.8 µM
